# Measurements taken from patent US20240374624A1, “NOVEL USE OF AT LEAST A HUMAN MILK OLIGOSACCHARIDE” (DSM IP ASSETS B.V., priority 2021, published 2024).
# Tested on: C. acnes (ATCC reference 11827)
# Assay: Cutibacterium acnes Time-Kill Assay
# Type: cell-based
# Conditions: for Log-step reduction (16 h) / Log-step reduction (24 h): reduction compared to initial log cfu/ml of 5.38, n=3; for effect on C. acnes (reduction or growth promotion, in words): summary of the time-kill study
# Experimental: Cutibacterium acnes Time-Kill Assay:
# Seven different HMOs were screened for their potential anti-microbial activities against C. acnes (ATCC reference 11827). The action of ingredients and combinations thereof is assessed through a miniaturized method performed in liquid media in 96 deepwell plates format. The inhibition of the growth of C. acnes is compared to the same strain growth in corresponding optimal media.
# The different ingredients are mixed at two different concentrations in growth medium (final volume 2 mL) in deepwell plates (n=3 for each concentration).
# Analysis controls are prepared and used identically to samples: • A growth control of C. acnes in the corresponding culture medium; • A […] consisting of Phenoxyethanol prepared at 0.5% (v/v) directly in the culture medium.
# Then, samples are contaminated with C. acnes, inoculum at final concentration of 3.7×10^5 CFU/mL, and incubated at 37° C.±2.5° C. during 24 h. At each defined timepoint (i.e. 30 min, 2 h, 4 h, 16 h and 24 h), a pick-up of the contaminated samples is performed (20 L) after gentle agitation.
# To perform the counting, aliquots of the contaminated samples are serially diluted (decimal dilutions) in culture medium in 96-well plates with triphenyltetrazolium and incubated at 37° C.±2.5° C. during 48 h. After 48 h at the optimal growing conditions, the last dilution showing a pink color (triphenyltetrazolium) or turbidity indicates the contamination rate and allow the determination of the corresponding microbial population.
# The results of the Time-Kill study are presented in the table below data are shown as log-step reduction compared to initial log cfu/ml of 5.38.
# [1] = 0.10 wt.-% ingredient in growth medium
# [2] = 0.5 wt.-% ingredient in growth medium
Compound,Log-step reduction (16 h) [1] [log-step],Log-step reduction (24 h) [1] [log-step],Log-step reduction (16 h) [2] [log-step],Log-step reduction (24 h) [2] [log-step],"effect on C. acnes (reduction or growth promotion, in words)"
2′-fucosyllactose [2′FL],0.5,0.5,1.5,1.5,still provided a reduction of C. acnes
"3-fucosyllactose [3FL (Ref), reference compound]",–,–,−0.4,−0.4,promoted C. acnes growth
"CC(=O)N[C@H]1[C@H](O[C@H]2[C@@H](O)[C@@H](CO)O[C@@H](O[C@H]3[C@H](O)[C@@H](O)C(O)O[C@@H]3CO)[C@@H]2O)O[C@H](CO)[C@@H](O[C@@H]2O[C@H](CO)[C@H](O)[C@H](O)[C@H]2O)[C@@H]1O (mixture of isomers) [LNnT (Ref), lacto-N-neotetraose, reference compound]",−0.4,−0.4,−0.5,−0.5,promoted C. acnes growth
"CC(=O)N[C@H]1[C@H](O[C@H]2[C@@H](O)[C@@H](CO)O[C@@H](O[C@H]3[C@H](O)[C@@H](O)C(O)O[C@@H]3CO)[C@@H]2O)O[C@H](CO)[C@@H](O)[C@@H]1O[C@@H]1O[C@H](CO)[C@H](O)[C@H](O)[C@H]1O (stereo partly drawn) [LNT, lacto-N-tetraose]",0.5,0.5,0.5,0.5,still provided a reduction of C. acnes
